Reference: PubChem BioAssay (NCI)
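96-well plates; 48 h exposure; 5 concentrations. Endpoints by linear interpolation between flanking doses. Not reached: highest tested concentration assigned. Definition used: TGI = concentration required for complete inhibition of growth.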

Tests used:
Experiment in all cases: NCI anticancer screen, dose series, 48 h
DLD-1 colon = tested on: DLD-1 colon
DMS 114 small cell lung = tested on: DMS 114 small cell lung
HOP-18 NSCLC = tested on: HOP-18 NSCLC
M19-MEL melanoma = tested on: M19-MEL melanoma
SNB-78 CNS = tested on: SNB-78 CNS
XF 498 CNS = tested on: XF 498 CNS
DMS 273 small cell lung = tested on: DMS 273 small cell lung
RXF-631 renal = tested on: RXF-631 renal
MDA-N = tested on: MDA-N

SMILES	TGI (DLD-1 colon)	TGI (DMS 114 small cell lung)	TGI (HOP-18 NSCLC)	TGI (M19-MEL melanoma)	TGI (SNB-78 CNS)	TGI (XF 498 CNS)	TGI (DMS 273 small cell lung)	TGI (RXF-631 renal)	TGI (MDA-N)
NCCn1ccc(NC(c2ccccc2)(c2ccccc2)c2ccccc2)nc1=O	> 100 µM	38.6 µM	> 100 µM	42.2 µM	42.5 µM	26.1 µM			
CCCCCCCCCCCCC/C=C1\C[C@H](O)COC1=O	32 µM		31.6 µM	33.6 µM	33.9 µM	30.5 µM	28 µM		
Clc1ccccc1C1N2CCCCC2[C@@H]2c3[nH]c4ccccc4c3CCN12 (some centres not stated)	37.5 µM	41.6 µM	> 100 µM	29.2 µM	61.1 µM	35.4 µM	> 100 µM		
O=C(N[C@@H]1C=CCC[C@@H]1c1ccccc1)OCc1ccccc1	> 85.6 µM	45.1 µM	46.9 µM	45.1 µM	93 µM	35.9 µM	32.4 µM		
COc1ccc(OC)c(/C=C/C(=O)C(C)(C)C)c1	48.4 µM	32.1 µM	38.9 µM	34.9 µM			50.9 µM	85.1 µM	
CC1(C(=O)NCCN(CCNC(=O)C2(C)CC3(C)CC(C)(C2)C(=O)NC3=O)CCNC(=O)C2(C)CC3(C)CC(C)(C2)C(=O)NC3=O)CC2(C)CC(C)(C1)C(=O)NC2=O (configuration not stated)		> 100 µM	> 100 µM	> 100 µM	> 100 µM	> 100 µM	> 100 µM		
CCOC(=O)C1(Br)C(c2ccccc2)NC(=O)N(C2OC(COC(=O)c3ccccc3)C(OC(=O)c3ccccc3)C2OC(=O)c2ccccc2)C1(C)Br (configuration not stated)	> 100 µM	49.6 µM	> 100 µM	> 100 µM			> 100 µM	50 µM	
CCOC(=O)C12CCSC1C1(C#N)C(C#N)=CC2(N=P(c2ccccc2)(c2ccccc2)c2ccccc2)n2c(=O)n(-c3ccccc3)c(=O)n21 (configuration not stated)	> 100 µM	96.6 µM		98.5 µM	> 100 µM	78.3 µM		> 100 µM	
C=CC1(c2ccccc2Cl)N/C(=C/OCC)CO1 (configuration not stated)	> 100 µM	> 100 µM	> 100 µM	> 100 µM	> 100 µM	> 100 µM	> 100 µM	> 100 µM	
Cc1cc2c(=O)cc(-c3ccc(C(F)(F)F)cc3)oc2c(C(=O)O)c1C	> 100 µM	> 100 µM	> 100 µM	> 100 µM	> 100 µM	> 100 µM	> 100 µM	> 100 µM	
c1ccc(CCCNc2nnnc3ccccc23)cc1									> 100 µM
NC1=NN(c2ccccc2)C(=O)C1/C(=N\NC(=O)c1cc2ccccc2cc1O)C(=O)Nc1nc([N+](=O)[O-])cs1 (configuration not stated)	> 77.2 µM	45.6 µM	> 100 µM	> 82.9 µM	> 100 µM	> 100 µM	> 73.6 µM	> 71.7 µM	
Cc1ccc(/C=N/NS(=O)(=O)c2ccccc2)cc1	> 100 µM	> 100 µM	> 100 µM		> 100 µM	> 100 µM	> 100 µM	> 100 µM	
CCOc1ccccc1NC(=O)C(=O)C(C(=O)c1ccc2ccccc2c1)C1OC(=O)c2ccccc21 (configuration not stated)	33.4 µM	33.6 µM	36.3 µM		75.8 µM		31.7 µM	22.4 µM	
O=C(c1ccccn1)c1nc(-c2ccc(Cl)c(Cl)c2)nc2ccc(Cl)cc12	> 100 µM	> 100 µM		> 100 µM	> 100 µM	55.3 µM	> 100 µM		
Nc1ccc(-c2ccc(Nc3cc(S(=O)(=O)O)c(N)c4c3C(=O)c3ccccc3C4=O)cc2)c(S(=O)(=O)O)c1									> 100 µM
O=C1NC2(CCCC2)/C(=N\O)C12CCCC2	> 100 µM	> 100 µM	> 100 µM	> 100 µM	> 100 µM	> 100 µM	> 100 µM		
